According to patent US12171233B1, “Ethyl {[N′-(3-chlorophenyl)-N-(2,4-dichlorobenzoyl) carbamimidoyl]sulfanyl}acetate as an eco-friendly insecticidal agent against Spodoptera littoralis (Boisd.)” (priority 2023, dated 2024):
In brackets after ≈: the same amount, converted by molar mass. Read-outs that look alike come from different tables or passages of the source.

Test system: Spodoptera littoralis larvae (2nd and 4th instar)
Experiment: Insecticidal bioassay screening (castor leaf dip)
Format: in vivo
Conditions: for LC50 (ppm) at 95% / LC90 (ppm) at 95%: after 72 h of treatment; for Toxicity index %: Diflubenzuron LC50 / compound LC50 x 100; for LC50: foliar
Method: In this experiment, castor leaves are immersed in each of the previously prepared concentrations of the components for 10 seconds and then left to dry for 60 minutes. Larvae of the second and fourth instars of each checked strain are prepared with treated leaves in gauze-covered glass containers for 72 hrs. An untreated control is made in which leaves are dipped in triton x-100 and distilled water only. Then the preserved leaves were removed & fresh, untreated leaves were provided for 72 hours. Three replicates (10 larvae each) were checked for each concentration. Daily inspection was carried out for all treatments and mortality percentages were recorded 3 days (72 hours) after treatment. The average mortality percentage was corrected employing Abbott's formula. The corrected mortality rate for each of the previously synthesized compounds is statistically calculated according to Finney (1970). Through this rate, the corresponding concentration test lines (LDP lines) are assessed. Fifty and ninety percent mortality are determined, and the regression values for the checked products were previously evaluated.

[1] = 2nd instar larvae of S. littoralis
[2] = 4th instar larvae of S. littoralis

Structure (SMILES) | LC50 (ppm) at 95% [1] | LC90 (ppm) at 95% [1] [ppm] | Toxicity index % (2nd instar larvae) [%] | LC50 (ppm) at 95% [2] | LC90 (ppm) at 95% [2] [ppm] | Toxicity index % (4th instar larvae) [%] | LC50 (Spodoptera littoralis) [µg/mL] | effect on larval morphology (FIGS. 1A-1B) (S. littoralis larvae versus normal larvae (control)) | activity against Spodoptera littoralis (in words) (compared with reference insecticide Diflubenzuron) | LC50 (against Spodoptera littoralis under laboratory conditions (instar not given), read-out: LC50) [µg/mL]
O=C(NC(=O)c1c(F)cccc1F)Nc1ccc(Cl)cc1 [Diflubenzuron, reference compound] | 45.20 ppm | 520.0 | 100 | 144.05 ppm | 1540.5 | 100 | 45.2 (≈ 145 µM) | – | – | –
O=C(NC(=S)Nc1cccc(Cl)c1)c1ccc(Cl)cc1Cl [Compound 1, 2,4-dichloro-N-[(3-chlorophenyl)carbamothioyl]benzamide] | 211.4 ppm | 1913.2 | 21.1 | 472.3 ppm | 4322.7 | 30.5 | – | – | – | –
CCOC(=O)CS/C(=N\c1cccc(Cl)c1)NC(=O)c1ccc(Cl)cc1Cl [Compound 2, Ethyl {[N′-(3-chlorophenyl)-N-(2,4-dichlorobenzoyl)carbamimidoyl]sulfanyl}acetate] | about 211.4 ppm | – | – | about 472.3 ppm | – | – | – | Morphological malformations | active against Spodoptera littoralis | 211
